Each block holds one compound with its values, some of them ahead of it.
Columns and labels:
[1] = tested on: Xanthomonas campestris pv. campestris; experiment: In vivo preventive test on Xanthomonas campestris pv. campestris (black rot on cabbage); settings: Xanthomonas campestris, sprayed 72 hours before inoculation, evaluated 8 or 10 days after inoculation, read-out: efficacy; for pest or weed control at 500 ppm: 500 ppm of active ingredient
Method: (§1) The tested active ingredients were prepared by homogenization in a mixture of acetone/Dimethyl sulfoxide/Tween®, and then diluted with water to obtain the desired active material concentration.
(§2) The young plants of cabbage were treated by spraying the active ingredient prepared as described above. Control plants were treated only with an aqueous solution of acetone/Dimethyl sulfoxide/Tween®.
After 72 hours, the plants were contaminated by spraying the leaves with an aqueous bacteria suspension of Xanthomonas campestris pv. campestris. The contaminated cabbage plants were incubated for 8 or 10 days at 27° C. at 95% relative humidity.
The test was evaluated 8 or 10 days after the inoculation. 0% means an efficacy which corresponds to that of the control plants while an efficacy of 100% means that no disease was observed.

[2] = tested on: Colletotrichum lindemuthianum; experiment: In vivo preventive test on Colletotrichum lindemuthianum (Anthracnose on bean); settings: Colletotrichum lindemuthianum, 144 h, sprayed 72 hours before inoculation, evaluated 6 days after inoculation, read-out: efficacy; for pest or weed control at 500 ppm: 500 ppm of active ingredient
Method: as §1
(§3) The young plants of bean were treated by spraying the active ingredient prepared as described above. Control plants were treated only with an aqueous solution of acetone/Dimethyl sulfoxide/Tween®.
After 72 hours, the plants were contaminated by spraying the leaves with an aqueous suspension of Colletotrichum lindemuthianum spores. The contaminated bean plants were incubated for 24 hours at 20° C. and at 100% relative humidity and then for 5 days at 20° C. and at 90% relative humidity.
The test was evaluated 6 days after the inoculation. 0% means an efficacy which corresponds to that of the control plants while an efficacy of 100% means that no disease was observed.

[3] = tested on: Peronospora parasitica; experiment: In vivo preventive test on Peronospora parasitica (Crucifer downy mildew) on cabbage; settings: Hyaloperonospora parasitica, 120 h, sprayed 72 hours before inoculation, evaluated 5 days after inoculation, read-out: efficacy; for pest or weed control at 125 ppm: 125 ppm of active ingredient; for pest or weed control at 31 ppm: 31 ppm of active ingredient; for pest or weed control at 500 ppm: 500 ppm of active ingredient
Method: as §1, §2
After 72 hours, the plants were contaminated by spraying the leaves with an aqueous suspension of Peronospora parasitica spores. The contaminated cabbage plants were incubated for 5 days at 20° C. and at 100% relative humidity.
The test was evaluated 5 days after the inoculation. 0% means an efficacy which corresponds to that of the control plants while an efficacy of 100% means that no disease was observed.

[4] = LogP by HPLC on reversed phase columns (EEC directive 79/831 Annex V.A8); format: physicochemical; settings: for chromatographic logP: reversed phase HPLC columns
Method: [table] If more than one Log P value is available within the same method, all the values are given and separated by “+”. Calibration was done with straight-chain alkan2-ones (with 3 to 16 carbon atoms) with known Log P values (measurement of Log P values using retention times with linear interpolation between successive alkanones). Lambda-max-values were determined using UV-spectra from 200 nm to 400 nm and the peak values of the chromatographic signals.

[5] = tested on: Uromyces appendiculatus; experiment: In vivo preventive test on Uromyces appendiculatus (bean rust); settings: 240 h, sprayed 72 hours before inoculation, evaluated 10 days after inoculation, read-out: efficacy; for pest or weed control at 31 ppm: 31 ppm of active ingredient; for pest or weed control at 125 ppm: 125 ppm of active ingredient; for pest or weed control at 500 ppm: 500 ppm of active ingredient
Method: as §1, §3
After 72 hours, the plants were contaminated by spraying the leaves with an aqueous suspension of Uromyces appendiculatus spores. The contaminated bean plants were incubated for 24 hours at 20° C. and at 100% relative humidity and then for 9 days at 20° C. and at 70-80% relative humidity.
The test was evaluated 10 days after the inoculation. 0% means an efficacy which corresponds to that of the control plants while an efficacy of 100% means that no disease was observed.

[6] = tested on: salicylate responsive promoter sequence of the PR1 (pathogenesis-related protein I) gene (AT2G14610); experiment: Induction of defense gene expression in Arabidopsis thaliana (PR1 promoter-GFP reporter plants); format: in vivo; settings: 72 h, 3rd day after spraying, mock treated leaves set as 1.00, read-out: relative fluorescence value
Method: Arabidopsis thaliana reporter plants containing the coding sequence of a green fluorescent protein (GFP) linked to the salicylate responsive promoter sequence of the PR1 (pathogenesis-related protein I) gene (AT2G14610) were grown for five days and then sprayed with compounds. On the 3rd day after spraying, plant fluorescence was assessed with a MacroFluo instrument from Leica Microsystems (Wetzlar, Germany). Fluorescences were quantified with the Meta-Morph Microscopy Automation & Image Analysis Software (Molecular Devices, Sunnyvale, Calif., United States). Background fluorescence in mock treated leaves was set as 1.00.

Structure (SMILES): O=C(NC(C(=O)O)C1CC1)c1sc(Br)c(Br)c1Br (stereo not drawn) [CMP8, reference compound]
pest or weed control at 500 ppm [1]: < 10%

Structure (SMILES): CCOC(=O)CN(C)C(=O)c1sc(Br)c(Br)c1Br [CMP15, reference compound]
pest or weed control at 500 ppm [2]: < 40%
pest or weed control at 125 ppm [3]: < 30%

chromatographic logP ([4]; method [a]): 4.23
Structure (SMILES): CCCOC(=O)C1(NC(=O)c2sc(Br)c(Br)c2C)CCC1 [I.133]
pest or weed control at 31 ppm [5]: 90 to 100%
pest or weed control at 125 ppm [5]: 90 to 100%
pest or weed control at 500 ppm [5]: 90 to 100%
pest or weed control at 31 ppm [3]: 70 to 79%
pest or weed control at 125 ppm [3]: 90 to 100%
pest or weed control at 500 ppm [3]: 90 to 100%
fold induction at 75 ppm [6]: > 2
fold induction at 300 ppm [6]: > 2

chromatographic logP ([4]; method [a]): 3.4
Structure (SMILES): COC(=O)C1(NC(=O)c2sc(Br)c(Br)c2C)CCC1 [I.131]
pest or weed control at 500 ppm [2]: 80 to 89%
pest or weed control at 125 ppm [5]: 90 to 100%
pest or weed control at 500 ppm [5]: 90 to 100%
pest or weed control at 31 ppm [3]: 80 to 89%
pest or weed control at 125 ppm [3]: 90 to 100%
pest or weed control at 500 ppm [3]: 90 to 100%
fold induction at 75 ppm [6]: > 2
fold induction at 300 ppm [6]: > 2

Structure (SMILES): COC(=O)C1(NC(=O)c2cc(Br)c(Br)s2)CC1 [CMP5, reference compound]
pest or weed control at 125 ppm ([2]; 125 ppm of active ingredient): 0%
pest or weed control at 31 ppm [5]: 0%
pest or weed control at 500 ppm [5]: < 20%
pest or weed control at 125 ppm [3]: < 40%

chromatographic logP ([4]; method [a]): 4.26
Structure (SMILES): CCCSC(=O)C1(NC(=O)c2sc(Br)c(Br)c2C)CC1 [I.134]
pest or weed control at 500 ppm [5]: 90 to 100%
pest or weed control at 500 ppm [3]: 80 to 89%
fold induction at 75 ppm [6]: > 2
fold induction at 300 ppm [6]: > 2

Structure (SMILES): O=C(NC1(C(=O)O)CC1)c1cc(Cl)c(Cl)s1 [CMP3, reference compound]
pest or weed control at 31 ppm ([1]; 31 ppm of active ingredient): < 40%
pest or weed control at 500 ppm [1]: 0%
pest or weed control at 125 ppm [3]: 0%
pest or weed control at 500 ppm [3]: 0%

Structure (SMILES): COC(=O)C(NC(=O)c1sc(Br)c(Br)c1Br)C1CC1 (stereo not drawn) [CMP14, reference compound]
pest or weed control at 31 ppm [3]: 0%
pest or weed control at 125 ppm [3]: 0%

Structure (SMILES): CCOC(=O)C1(NC(=O)c2cc(Cl)c(Cl)s2)CC1 [CMP6, reference compound]
pest or weed control at 31 ppm ([2]; 31 ppm of active ingredient): < 40%
pest or weed control at 125 ppm [3]: 0%
pest or weed control at 500 ppm [3]: 0%

LogP ([4]; method [a]): 3.68^[a]
Structure (SMILES): COC(=O)C1(NC(=S)c2sc(Cl)c(Cl)c2C)CC1 [I.050]

LogP ([4]; method [a]): 1.96^[a]
Structure (SMILES): Cc1c(C(=O)NC2(C(N)=O)CC2)sc(Cl)c1Cl [I.063]

LogP ([4]; method [a]): 3.92^[a]
Structure (SMILES): CCOC(=O)CNC(=S)c1sc(Cl)c(Cl)c1C [I.099]

LogP ([4]; method [a]): 4.01^[a]
Structure (SMILES): COC(=O)C(NC(=O)c1sc(Br)c(Br)c1C)(C1CC1)C1CC1 [I.093]

LogP ([4]; method [a]: LC-UV, acidic range, 0.1% formic acid in water and acetonitrile as eluent): 1.93^[a]
Structure (SMILES): Cc1c(C(=O)NC2CCNC(=O)C2)sc(Br)c1Br (stereo not drawn) [I.066]

LogP ([4]; method [a]): 2.31^[a]
Structure (SMILES): Cc1c(C(=O)NC(C(=O)NO)C(C)C)sc(Br)c1Br (stereo not drawn) [I.115]

LogP ([4]; method [a]): 1.77^[a]
Structure (SMILES): Cc1c(C(=O)NC(CCC(N)=O)C(=O)O)sc(Br)c1Br (stereo not drawn) [I.072]

LogP ([4]; method [a]): 3.50^[a]
Structure (SMILES): Cc1c(C(=O)NC2(C#N)CCCSC2)sc(Br)c1Br (stereo not drawn) [I.177]

LogP ([4]; method [b]: LC-UV, neutral range, 0.001 molar ammonium acetate solution in water and acetonitrile as eluent): 2.97^[b]
Structure (SMILES): Cc1c(C(=O)N[C@H]2CCSC2=O)sc(Cl)c1Cl [I.111]

LogP ([4]; method [a]): 2.07^[a]
Structure (SMILES): Cc1c(C(=O)NC2(C(N)=O)CC2)sc(Br)c1Br [I.129]

LogP ([4]; method [a]): 4.55^[a]
Structure (SMILES): Cc1c(C(=O)NC2(C(=O)OC(C)(C)C)CCC2)sc(Cl)c1Cl [I.156]

LogP ([4]; method [a]): 2.52^[a]
Structure (SMILES): COC(=O)C1(NC(=O)c2sc(Cl)c(Cl)c2C)COC1 [I.144]

LogP ([4]; method [a]): 4.23^[a]
Structure (SMILES): CCOC(=O)C(CC1CC1)NC(=O)c1sc(Cl)c(Cl)c1C (stereo not drawn) [I.085]

LogP ([4]; method [a]): 2.59^[a]
Structure (SMILES): Cc1c(C(=O)NCC#N)sc(Br)c1Br [I.026]

LogP ([4]; method [a]): 3.00^[a]
Structure (SMILES): COC(=O)CC(NC(=O)c1sc(Cl)c(Cl)c1C)C(=O)OC (stereo not drawn) [I.118]

From patent US12509437B2, “Substituted thiophene carboxamides and derivatives thereof as microbicides” (Bayer Aktiengesellschaft, priority 2019, dated 2025)
